Test results published in US9802891B2, “Crystal forms of azetidinone compounds and preparing methods thereof” (Zhejiang Hisun Pharmaceutical Co., Ltd., priority 2012, dated 2017).

Experiments:
Long term stability test = type: physicochemical; conditions: 25° C.±2° C., relative humidity 60%±10%; for Content of C25H21F2NO3, based on anhydride: shall be no less than 97.0%; for Relevant substances: Single maximum unknown foreign matter: shall not exceed 0.3%; for Relevant substances: Total foreign matter: shall not exceed 1.5%; for Moisture: shall not exceed 2.0%
Procedure: In accordance with the stability test guiding principles (Chinese Pharmacopoeia 2010 Edition 2—Annex XIX C), prepare the samples of the crystal form I of the compound of formula A described in embodiment 6 in a commercial package, place the samples in a thermotank at the temperature of 25° C.±2° C. with the relative humidity of 60%±10%, take each sample from the samples once at the ends of the third month, the sixth month and the ninth month respectively to detect the key stability inspection items of each sample and compare with the result of the sample at the zero day, wherein see Table 3 for the comparisons.

[1] = Accelerated stability test; type: physicochemical; conditions: 40° C.±2° C., relative humidity 75%±5%; for Melting point / Content of C25H21F2NO3, based on anhydride / Relevant substances: Single maximum unknown foreign matter / Relevant substances: Total foreign matter / Moisture / Relevant substances: Diastereomer: commercial package; for Melting point: limit 149-153° C.; for Content of C25H21F2NO3, based on anhydride: shall be no less than 97.0%; for Relevant substances: Single maximum unknown foreign matter: shall not exceed 0.3%; for Relevant substances: Total foreign matter: shall not exceed 1.5%; for Moisture: shall not exceed 2.0%; for Relevant substances: Diastereomer: shall not exceed 1.0%
Procedure: In accordance with the stability test guiding principles (Chinese Pharmacopoeia 2010 Edition 2—Annex XIX C), prepare the sample of the crystal form I of the compound of formula A described in embodiment 6 in a commercial package, place the samples in a thermotank at the temperature of 40° C.±2° C. with the relative humidity of 75%±5%, with the duration of 6 months, take each sample once at the ends of the first month, the second month, the third month and the sixth month respectively to detect the key stability inspection items and compare with the results of the sample at the zero day, wherein see Table 4 for the comparisons.

[2] = commercial package, month 9, shall not exceed 0.5%

Structure (SMILES): O=C1[C@H](C/C=C(\CO)c2ccc(F)cc2)[C@@H](c2ccc(O)cc2)N1c1ccc(F)cc1 [crystal form I, (3R,4S)-4-(4-hydroxyphenyl)-3-[3-(4-fluorophenyl)-4-hydroxybut-2(Z)-enyl]-1-(4-fluorophenyl)-2-azetidinone]
- Content of C25H21F2NO3, based on anhydride (Long term stability test; commercial package, month 0): 98.74%
- Relevant substances: Single maximum unknown foreign matter (Long term stability test; commercial package, month 0): 0.097%
- Relevant substances: Total foreign matter (Long term stability test; commercial package, month 0): 0.342%
- Moisture (Long term stability test; commercial package, month 0): 0.23%
- Content of C25H21F2NO3, based on anhydride (Long term stability test; commercial package, month 3): 98.99%
- Relevant substances: Single maximum unknown foreign matter (Long term stability test; commercial package, month 3): 0.1013%
- Relevant substances: Total foreign matter (Long term stability test; commercial package, month 3): 0.3488%
- Moisture (Long term stability test; commercial package, month 3): 0.41%
- Content of C25H21F2NO3, based on anhydride (Long term stability test; commercial package, month 6): 98.83%
- Relevant substances: Single maximum unknown foreign matter (Long term stability test; commercial package, month 6): 0.0956%
- Relevant substances: Total foreign matter (Long term stability test; commercial package, month 6): 0.3551%
- Moisture (Long term stability test; commercial package, month 6): 0.56%
- Content of C25H21F2NO3, based on anhydride (Long term stability test; commercial package, month 9): 98.91%
- Relevant substances: Single maximum unknown foreign matter (Long term stability test; commercial package, month 9): 0.0940%
- Isomer: E-isomer (Long term stability test; [2]): 0.0161%
- Isomer: Enantiomer (Long term stability test; [2]): 0.0587%
- Relevant substances: Total foreign matter (Long term stability test; commercial package, month 9): 0.3581%
- Moisture (Long term stability test; commercial package, month 9): 0.32%
- Long term stability, conclusion on inspection indexes (Long term stability test; nine month): various inspection indexes of the samples do not change apparently and all meet the specifications
- Melting point ([1]; month 0): 149.8-152.1 °C
- Content of C25H21F2NO3, based on anhydride ([1]; month 0): 98.71%
- Relevant substances: Single maximum unknown foreign matter ([1]; month 0): 0.097%
- Relevant substances: Total foreign matter ([1]; month 0): 0.342%
- Moisture ([1]; month 0): 0.20%
- Melting point ([1]; month 1): 149.3-151.5 °C
- Content of C25H21F2NO3, based on anhydride ([1]; month 1): 99.11%
- Relevant substances: Single maximum unknown foreign matter ([1]; month 1): 0.1004%
- Relevant substances: Diastereomer ([1]; month 1): 0.0128%
- Relevant substances: Total foreign matter ([1]; month 1): 0.3757%
- Moisture ([1]; month 1): 0.30%
- Melting point ([1]; month 2): 149.7-152.1 °C
- Content of C25H21F2NO3, based on anhydride ([1]; month 2): 98.82%
- Relevant substances: Single maximum unknown foreign matter ([1]; month 2): 0.0856%
- Relevant substances: Diastereomer ([1]; month 2): Not detected
- Relevant substances: Total foreign matter ([1]; month 2): 0.3650%
- Moisture ([1]; month 2): 0.28%
- Melting point ([1]; month 3): 149.7-152.1 °C
- Content of C25H21F2NO3, based on anhydride ([1]; month 3): 98.78%
- Relevant substances: Single maximum unknown foreign matter ([1]; month 3): 0.0983%
- Relevant substances: Diastereomer ([1]; month 3): Not detected
- Relevant substances: Total foreign matter ([1]; month 3): 0.3717%
- Moisture ([1]; month 3): 0.37%
- Melting point ([1]; month 6): 149.5-151.9 °C
- Content of C25H21F2NO3, based on anhydride ([1]; month 6): 97.97%
- Relevant substances: Single maximum unknown foreign matter ([1]; month 6): 0.2017%
- Relevant substances: Diastereomer ([1]; month 6): Not detected
- Relevant substances: Total foreign matter ([1]; month 6): 1.0828%
- Moisture ([1]; month 6): 0.44%
- Accelerated stability, conclusion on inspection indexes ([1]; 6 months): the relevant substances are grown significantly in the sixth month and the content is reduced at a certain level; however, both of the two are within the acceptable range
